# Values quoted from earlier work, collected in US20190021998A1, “TOPICAL NANOEMULSION THERAPY FOR WOUNDS” (THE REGENTS OF THE UNIVERSITY OF MICHIGAN, priority 2014, published 2019).
# Settings: footnote *
compound,measurement,value
"CCCCCCCCCCCCCCCCCC[N+](C)(C)CCCCCCCCCCCCCCCCCC [DODAC, Dioctadecyl dimethyl ammonium chloride]","CMC (mM), critical concentration for unilamellar vesicles",10* mM
